In brackets after ≈: the same amount, converted by molar mass. Blank lines part the entries; values can stand above or below the compound they belong to.
Tests used:
[1] = test system: Escherichia coli (ATCC 25922); assay: Antibiotic susceptibility by glucose consumption in culture medium, blood culture bottle inoculum (Example 1); assay type: cell-based; conditions: for Glucose concentration t=0: 0 minutes; for Glucose concentration t=60: 60 minutes; for Glucose concentration t=120: 120 minutes; for Glucose concentration t=180: 180 minutes; for dC/dT: rate of change in glucose concentration; for Glucose concentration t=240: 240 minutes;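 for dC/dT: rate calculated between the 60 and 180 min readings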
In short: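 Bacteria grown in blood culture bottles until positive, diluted 1:100 into cation-adjusted Mueller-Hinton broth with glucose at 1.0 mg/mL plus antibiotic (µg/mL). Glucose read by glucometer at 0–240 min.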

[2] = test system: Escherichia coli ATCC 25922; conditions: E.coli, cited from earlier work
[3] = test system: Staphylococcus aureus ATCC 29213; conditions: S.aureus, cited from earlier work; for MIC EUCAST, range in parentheses: range obtained by EUCAST from ISO 20776-1: 2006; for MIC EUCAST: reference MIC value, EUCAST QC tables Version 7.0, 2017
[4] = test system: Enterococcus faecalis ATCC 29212; conditions: E.faecalis, cited from earlier work
[5] = range obtained by EUCAST from ISO 20776-1: 2006
[6] = reference MIC value, EUCAST QC tables Version 7.0, 2017

MIC ([1]; Escherichia coli, ATCC25922, E.coli, 80% threshold of rate of change vs reference, between 60 and 180 minutes, obtained in 4 hours, read-out: MIC Measured): 4 µg/mL (≈ 9.36 µM)
Structure (SMILES): CO[C@@]1(NC(=O)Cc2cccs2)C(=O)N2C(C(=O)O)=C(COC(N)=O)CS[C@@H]21 [Cefoxitin]
F=the rate of change in glucose concentration in relation to the reference ([1]; [Ab] 0,5 µg/mL): 139%
Glucose concentration t=0 ([1]; [Ab] 0,5 µg/mL): 139
Glucose concentration t=60 ([1]; [Ab] 0,5 µg/mL): 154
Glucose concentration t=120 ([1]; [Ab] 0,5 µg/mL): 140
Glucose concentration t=180 ([1]; [Ab] 0,5 µg/mL): 54
dC/dT ([1]; [Ab] 0,5 µg/mL): 86
F=the rate of change in glucose concentration in relation to the reference ([1]; [Ab] 0,25 µg/mL): 165%
Glucose concentration t=0 ([1]; [Ab] 0,25 µg/mL): 145
Glucose concentration t=60 ([1]; [Ab] 0,25 µg/mL): 157
Glucose concentration t=120 ([1]; [Ab] 0,25 µg/mL): 143
Glucose concentration t=180 ([1]; [Ab] 0,25 µg/mL): 41
dC/dT ([1]; [Ab] 0,25 µg/mL): 102
F=the rate of change in glucose concentration in relation to the reference ([1]; [Ab] 1 µg/mL): 129%
Glucose concentration t=0 ([1]; [Ab] 1 µg/mL): 144
Glucose concentration t=60 ([1]; [Ab] 1 µg/mL): 150
Glucose concentration t=120 ([1]; [Ab] 1 µg/mL): 143
Glucose concentration t=180 ([1]; [Ab] 1 µg/mL): 63
dC/dT ([1]; [Ab] 1 µg/mL): 80
F=the rate of change in glucose concentration in relation to the reference ([1]; [Ab] 2 µg/mL): 102%
Glucose concentration t=0 ([1]; [Ab] 2 µg/mL): 143
Glucose concentration t=60 ([1]; [Ab] 2 µg/mL): 163
Glucose concentration t=120 ([1]; [Ab] 2 µg/mL): 138
Glucose concentration t=180 ([1]; [Ab] 2 µg/mL): 75
dC/dT ([1]; [Ab] 2 µg/mL): 63
F=the rate of change in glucose concentration in relation to the reference ([1]; [Ab] 4 µg/mL): 19%
Glucose concentration t=0 ([1]; [Ab] 4 µg/mL): 146
Glucose concentration t=60 ([1]; [Ab] 4 µg/mL): 149
Glucose concentration t=120 ([1]; [Ab] 4 µg/mL): 140
Glucose concentration t=180 ([1]; [Ab] 4 µg/mL): 125
Glucose concentration t=240 ([1]; [Ab] 4 µg/mL): 116
dC/dT ([1]; [Ab] 4 µg/mL): 12
F=the rate of change in glucose concentration in relation to the reference ([1]; [Ab] 8 µg/mL): 18%
Glucose concentration t=0 ([1]; [Ab] 8 µg/mL): 145
Glucose concentration t=60 ([1]; [Ab] 8 µg/mL): 164
Glucose concentration t=120 ([1]; [Ab] 8 µg/mL): 149
Glucose concentration t=180 ([1]; [Ab] 8 µg/mL): 132
Glucose concentration t=240 ([1]; [Ab] 8 µg/mL): 127
dC/dT ([1]; [Ab] 8 µg/mL): 11
F=the rate of change in glucose concentration in relation to the reference ([1]; [Ab] 16 µg/mL): 6%
Glucose concentration t=0 ([1]; [Ab] 16 µg/mL): 142
Glucose concentration t=60 ([1]; [Ab] 16 µg/mL): 152
Glucose concentration t=120 ([1]; [Ab] 16 µg/mL): 152
Glucose concentration t=180 ([1]; [Ab] 16 µg/mL): 141
Glucose concentration t=240 ([1]; [Ab] 16 µg/mL): 145
dC/dT ([1]; [Ab] 16 µg/mL): 4
F=the rate of change in glucose concentration in relation to the reference ([1]; [Ab] 32 µg/mL): 5%
Glucose concentration t=0 ([1]; [Ab] 32 µg/mL): 146
Glucose concentration t=60 ([1]; [Ab] 32 µg/mL): 150
Glucose concentration t=120 ([1]; [Ab] 32 µg/mL): 143
Glucose concentration t=180 ([1]; [Ab] 32 µg/mL): 142
Glucose concentration t=240 ([1]; [Ab] 32 µg/mL): 137
dC/dT ([1]; [Ab] 32 µg/mL): 3
MIC EUCAST, range in parentheses [2, 5]: 2 to 8 µg/mL
MIC EUCAST [2, 6]: 4 µg/mL (≈ 9.36 µM)
MIC EUCAST, range in parentheses [3]: 1 to 4 µg/mL
MIC EUCAST [3]: 2 µg/mL (≈ 4.68 µM)

Structure (SMILES): CN[C@H](CC(C)C)C(=O)N[C@H]1C(=O)N[C@@H](CC(N)=O)C(=O)N[C@H]2C(=O)N[C@H]3C(=O)N[C@H](C(=O)N[C@H](C(=O)O)c4cc(O)cc(O)c4-c4cc3ccc4O)[C@H](O)c3ccc(c(Cl)c3)Oc3cc2cc(c3O[C@@H]2O[C@H](CO)[C@@H](O)[C@H](O)[C@H]2O[C@H]2C[C@](C)(N)[C@H](O)[C@H](C)O2)Oc2ccc(cc2Cl)[C@H]1O [Vancomycin]
F=the rate of change in glucose concentration in relation to the reference ([1]; [Ab] 0,5 µg/mL): 65%
Glucose concentration t=60 ([1]; [Ab] 0,5 µg/mL): 149
Glucose concentration t=120 ([1]; [Ab] 0,5 µg/mL): 145
Glucose concentration t=180 ([1]; [Ab] 0,5 µg/mL): 68
dC/dT ([1]; [Ab] 0,5 µg/mL): 41
F=the rate of change in glucose concentration in relation to the reference ([1]; [Ab] 0,25 µg/mL): 68%
Glucose concentration t=60 ([1]; [Ab] 0,25 µg/mL): 150
Glucose concentration t=120 ([1]; [Ab] 0,25 µg/mL): 145
Glucose concentration t=180 ([1]; [Ab] 0,25 µg/mL): 66
dC/dT ([1]; [Ab] 0,25 µg/mL): 42
F=the rate of change in glucose concentration in relation to the reference ([1]; [Ab] 1 µg/mL): 73%
Glucose concentration t=60 ([1]; [Ab] 1 µg/mL): 155
Glucose concentration t=120 ([1]; [Ab] 1 µg/mL): 149
Glucose concentration t=180 ([1]; [Ab] 1 µg/mL): 65
dC/dT ([1]; [Ab] 1 µg/mL): 45
F=the rate of change in glucose concentration in relation to the reference ([1]; [Ab] 2 µg/mL): 65%
Glucose concentration t=60 ([1]; [Ab] 2 µg/mL): 147
Glucose concentration t=120 ([1]; [Ab] 2 µg/mL): 151
Glucose concentration t=180 ([1]; [Ab] 2 µg/mL): 67
dC/dT ([1]; [Ab] 2 µg/mL): 40
F=the rate of change in glucose concentration in relation to the reference ([1]; [Ab] 4 µg/mL): 69%
Glucose concentration t=60 ([1]; [Ab] 4 µg/mL): 147
Glucose concentration t=120 ([1]; [Ab] 4 µg/mL): 145
Glucose concentration t=180 ([1]; [Ab] 4 µg/mL): 61
dC/dT ([1]; [Ab] 4 µg/mL): 43
F=the rate of change in glucose concentration in relation to the reference ([1]; [Ab] 8 µg/mL): 87%
Glucose concentration t=60 ([1]; [Ab] 8 µg/mL): 159
Glucose concentration t=120 ([1]; [Ab] 8 µg/mL): 147
Glucose concentration t=180 ([1]; [Ab] 8 µg/mL): 51
dC/dT ([1]; [Ab] 8 µg/mL): 54
F=the rate of change in glucose concentration in relation to the reference ([1]; [Ab] 0,125 µg/mL): 71%
Glucose concentration t=60 ([1]; [Ab] 0,125 µg/mL): 153
Glucose concentration t=120 ([1]; [Ab] 0,125 µg/mL): 154
Glucose concentration t=180 ([1]; [Ab] 0,125 µg/mL): 65
dC/dT ([1]; [Ab] 0,125 µg/mL): 44
F=the rate of change in glucose concentration in relation to the reference ([1]; [Ab] 0,0625 µg/mL): 67%
Glucose concentration t=60 ([1]; [Ab] 0,0625 µg/mL): 148
Glucose concentration t=120 ([1]; [Ab] 0,0625 µg/mL): 144
Glucose concentration t=180 ([1]; [Ab] 0,0625 µg/mL): 65
dC/dT ([1]; [Ab] 0,0625 µg/mL): 42
MIC EUCAST, range in parentheses [4, 5]: 1 to 4 µg/mL
MIC EUCAST [4, 6]: 2 µg/mL (≈ 1.38 µM)
MIC EUCAST, range in parentheses [3]: 0.5 to 2 µg/mL
MIC EUCAST [3]: 1 µg/mL (≈ 0.69 µM)

From EP3717657B1, “A SYSTEM FOR ASSESSING MICROBIAL SUSCEPTIBILITY TO ANTIBIOTIC AGENTS” (Ascilion AB, priority 2017, dated 2019)
